Reference: US6784198B1, “Arylmethyl-carbonylamino-thiazole derivatives and their use as antitumor agents” (Pharmacia Italia S.p.A., priority 1999, dated 2004)

melting point: 174 to 176 °C
SMILES: CC(=O)Nc1nc(CC(=O)Nc2ncc(C(C)C)s2)cs1 [2-[2-(acetylamino)-1,3-thiazol-4-yl]-N-(5-isopropyl-1,3-thiazol-2-yl)acetamide]
